In ChEMBL document CHEMBL1201862, “PubChem BioAssay data set” (2004):
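Exposure lasted 48 hours, with cells grown in 96-well plates and compounds tested at five concentrations. The concentration for 50% growth inhibition is given as GI50.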 Activity calls are given as the source filed them. No stated cut-off is given here; in the data, active = GI50 up to about 1.1 µM and inactive = higher.

How the values were obtained:
Assay in all cases: NCI-60 cell line screen, 48 h
HL-60 = tested on: HL-60
SF-295 = tested on: SF-295
M19-MEL = tested on: M19-MEL
HOP-18 = tested on: HOP-18
CAKI-1 = tested on: CAKI-1
K562 = tested on: K562
EKVX = tested on: EKVX
UACC-257 = tested on: UACC-257
HCT-116 = tested on: HCT-116
SK-MEL-5 = tested on: SK-MEL-5
LXFL 529 = tested on: LXFL 529
HOP-92 = tested on: HOP-92
U-251 = tested on: U-251
Malme-3M = tested on: Malme-3M
SW-620 = tested on: SW-620
786-0 = tested on: 786-0
SK-OV-3 = tested on: SK-OV-3
M14 = tested on: M14
DMS-114 = tested on: DMS-114
SNB-19 = tested on: SNB-19
NCI-H226 = tested on: NCI-H226
KM12 = tested on: KM12
UACC-62 = tested on: UACC-62
XF498 = tested on: XF498
OVCAR-4 = tested on: OVCAR-4
OVCAR-5 = tested on: OVCAR-5
HCC 2998 = tested on: HCC 2998
COLO 205 = tested on: COLO 205
UO-31 = tested on: UO-31
HT-29 = tested on: HT-29
SK-MEL-28 = tested on: SK-MEL-28
DLD-1 = tested on: DLD-1
ACHN = tested on: ACHN
CCRF-CEM = tested on: CCRF-CEM
IGROV-1 = tested on: IGROV-1
A498 = tested on: A498
KM-20L2 = tested on: KM-20L2
SF-268 = tested on: SF-268
RPMI-8226 = tested on: RPMI-8226
SN12C = tested on: SN12C
HOP-62 = tested on: HOP-62
NCI-H23 = tested on: NCI-H23
LOX IMVI = tested on: LOX IMVI
OVCAR-8 = tested on: OVCAR-8
SR = tested on: SR
SF-539 = tested on: SF-539
MOLT-4 = tested on: MOLT-4
OVCAR-3 = tested on: OVCAR-3
SK-MEL-2 = tested on: SK-MEL-2
A549 = tested on: A549
TK-10 = tested on: TK-10
SNB-75 = tested on: SNB-75
RXF 393 = tested on: RXF 393
NCI-H522 = tested on: NCI-H522
SNB-78 = tested on: SNB-78
NCI-H460 = tested on: NCI-H460
HCT-15 = tested on: HCT-15
DMS-273 = tested on: DMS-273

O=C1CCc2ccc(O)c(c2)Oc2ccc(cc2)[C@@H]2O[C@@H]2CO1
GI50 (HL-60): 37.9 µM (inactive) | GI50 (SF-295): 56.1 µM (inactive) | GI50 (M19-MEL): 38.1 µM (inactive) | GI50 (HOP-18): 25.6 µM (inactive) | GI50 (CAKI-1): 29.6 µM (inactive) | GI50 (K562): 24.6 µM (inactive) | GI50 (EKVX): 59.8 µM (inactive) | GI50 (UACC-257): 48.4 µM (inactive) | GI50 (HCT-116): 48.2 µM (inactive) | GI50 (SK-MEL-5): 23.6 µM (inactive) | GI50 (LXFL 529): 33.2 µM (inactive) | GI50 (HOP-92): 23.7 µM (inactive) | GI50 (U-251): 67.8 µM (inactive) | GI50 (Malme-3M): 22.2 µM (inactive) | GI50 (SW-620): 53.6 µM (inactive) | GI50 (786-0): > 100 µM (inactive) | GI50 (SK-OV-3): 27 µM (inactive) | GI50 (M14): 41.6 µM (inactive) | GI50 (DMS-114): 20 µM (inactive) | GI50 (SNB-19): 82.6 µM (inactive) | GI50 (NCI-H226): 40.5 µM (inactive) | GI50 (KM12): 72.8 µM (inactive) | GI50 (UACC-62): 30.5 µM (inactive) | GI50 (XF498): 5.26 µM (inactive) | GI50 (OVCAR-4): 41 µM (inactive) | GI50 (OVCAR-5): 54.2 µM (inactive) | GI50 (HCC 2998): > 100 µM (inactive) | GI50 (COLO 205): 98.9 µM (inactive) | GI50 (UO-31): 23.8 µM (inactive) | GI50 (HT-29): 89.3 µM (inactive) | GI50 (SK-MEL-28): 49.2 µM (inactive) | GI50 (DLD-1): 55.8 µM (inactive) | GI50 (ACHN): 61.8 µM (inactive) | GI50 (CCRF-CEM): 76 µM (inactive) | GI50 (IGROV-1): 17.8 µM (inactive) | GI50 (A498): 29 µM (inactive) | GI50 (KM-20L2): 88.5 µM (inactive) | GI50 (SF-268): > 10 µM (inactive) | GI50 (RPMI-8226): 28.9 µM (inactive) | GI50 (SN12C): 62.4 µM (inactive) | GI50 (HOP-62): > 100 µM (inactive) | GI50 (NCI-H23): 38.4 µM (inactive) | GI50 (LOX IMVI): 40.8 µM (inactive) | GI50 (OVCAR-8): 75.5 µM (inactive) | GI50 (SR): 30.1 µM (inactive) | GI50 (SF-539): 70.6 µM (inactive) | GI50 (MOLT-4): 23.9 µM (inactive) | GI50 (OVCAR-3): 32.8 µM (inactive) | GI50 (SK-MEL-2): 34 µM (inactive) | GI50 (A549): 56.8 µM (inactive) | GI50 (TK-10): 73.5 µM (inactive) | GI50 (SNB-75): 37.9 µM (inactive)

O=C1c2ccccc2-c2ccccc2C(=O)C1(Br)Br
GI50 (HL-60): 2.15 µM (inactive) | GI50 (SF-295): 16.1 µM (inactive) | GI50 (M19-MEL): 8.69 µM (inactive) | GI50 (HOP-18): 13.4 µM (inactive) | GI50 (CAKI-1): 5.87 µM (inactive) | GI50 (K562): 4.13 µM (inactive) | GI50 (EKVX): 14.6 µM (inactive) | GI50 (UACC-257): 10.7 µM (inactive) | GI50 (HCT-116): 7.73 µM (inactive) | GI50 (RXF 393): 3.56 µM (inactive) | GI50 (SK-MEL-5): 17.3 µM (inactive) | GI50 (LXFL 529): 7.96 µM (inactive) | GI50 (HOP-92): 3.21 µM (inactive) | GI50 (U-251): 15.8 µM (inactive) | GI50 (Malme-3M): 3.93 µM (inactive) | GI50 (SW-620): 3.8 µM (inactive) | GI50 (786-0): 13 µM (inactive) | GI50 (SK-OV-3): 19.5 µM (inactive) | GI50 (NCI-H522): 2.15 µM (inactive) | GI50 (M14): 5.33 µM (inactive) | GI50 (DMS-114): 15.2 µM (inactive) | GI50 (SNB-78): 8.11 µM (inactive) | GI50 (SNB-19): 17.7 µM (inactive) | GI50 (NCI-H226): 17.7 µM (inactive) | GI50 (KM12): 17.7 µM (inactive) | GI50 (NCI-H460): 19.1 µM (inactive) | GI50 (UACC-62): 7.36 µM (inactive) | GI50 (OVCAR-4): 13.7 µM (inactive) | GI50 (OVCAR-5): 18.1 µM (inactive) | GI50 (HCC 2998): 18.2 µM (inactive) | GI50 (COLO 205): 8.24 µM (inactive) | GI50 (UO-31): 14.4 µM (inactive) | GI50 (HT-29): 15.4 µM (inactive) | GI50 (SK-MEL-28): 7.28 µM (inactive) | GI50 (DLD-1): 6.75 µM (inactive) | GI50 (ACHN): 11.7 µM (inactive) | GI50 (CCRF-CEM): 2.52 µM (inactive) | GI50 (IGROV-1): 14 µM (inactive) | GI50 (A498): 16.6 µM (inactive) | GI50 (KM-20L2): 16.9 µM (inactive) | GI50 (SF-268): 14.2 µM (inactive) | GI50 (RPMI-8226): 1.84 µM (inactive) | GI50 (SN12C): 11.8 µM (inactive) | GI50 (HCT-15): 12.4 µM | GI50 (HOP-62): 18.2 µM (inactive) | GI50 (DMS-273): 15.6 µM (inactive) | GI50 (NCI-H23): 13.4 µM (inactive) | GI50 (LOX IMVI): 9.27 µM (inactive) | GI50 (OVCAR-8): 11 µM (inactive) | GI50 (SR): 2.02 µM (inactive) | GI50 (SF-539): 9.51 µM (inactive) | GI50 (MOLT-4): 2.67 µM (inactive) | GI50 (OVCAR-3): 14.1 µM (inactive) | GI50 (SK-MEL-2): 9.75 µM (inactive) | GI50 (A549): 17.7 µM (inactive) | GI50 (TK-10): 10.6 µM (inactive) | GI50 (SNB-75): 12.9 µM (inactive)

COc1ccc2c(c1)CN1CCc3c(cc(OC)c(OC)c3OC)C1C2 (stereo not drawn)
GI50 (HL-60): 41.5 µM (inactive) | GI50 (SF-295): > 100 µM (inactive) | GI50 (M19-MEL): > 100 µM (inactive) | GI50 (HOP-18): > 100 µM (inactive) | GI50 (CAKI-1): > 100 µM (inactive) | GI50 (K562): 57.5 µM (inactive) | GI50 (EKVX): > 100 µM (inactive) | GI50 (UACC-257): > 100 µM (inactive) | GI50 (HCT-116): > 100 µM (inactive) | GI50 (RXF 393): > 100 µM (inactive) | GI50 (SK-MEL-5): 36.5 µM (inactive) | GI50 (LXFL 529): 39.4 µM (inactive) | GI50 (HOP-92): > 100 µM (inactive) | GI50 (U-251): > 100 µM (inactive) | GI50 (Malme-3M): > 100 µM (inactive) | GI50 (SW-620): > 100 µM (inactive) | GI50 (786-0): > 100 µM (inactive) | GI50 (SK-OV-3): > 100 µM (inactive) | GI50 (NCI-H522): > 100 µM (inactive) | GI50 (M14): 87.1 µM (inactive) | GI50 (DMS-114): 58.5 µM (inactive) | GI50 (SNB-78): > 100 µM (inactive) | GI50 (SNB-19): > 100 µM (inactive) | GI50 (NCI-H226): > 100 µM (inactive) | GI50 (UACC-62): 74.1 µM (inactive) | GI50 (XF498): 38.7 µM (inactive) | GI50 (OVCAR-4): > 100 µM (inactive) | GI50 (OVCAR-5): 64.1 µM (inactive) | GI50 (HCC 2998): > 100 µM (inactive) | GI50 (COLO 205): > 100 µM (inactive) | GI50 (UO-31): > 100 µM (inactive) | GI50 (HT-29): 68.5 µM (inactive) | GI50 (SK-MEL-28): 47.6 µM (inactive) | GI50 (DLD-1): > 100 µM (inactive) | GI50 (ACHN): > 100 µM (inactive) | GI50 (CCRF-CEM): 74.6 µM (inactive) | GI50 (IGROV-1): > 100 µM (inactive) | GI50 (KM-20L2): > 100 µM (inactive) | GI50 (SF-268): > 100 µM (inactive) | GI50 (RPMI-8226): 38.4 µM (inactive) | GI50 (SN12C): > 100 µM (inactive) | GI50 (HCT-15): > 100 µM | GI50 (HOP-62): > 100 µM (inactive) | GI50 (DMS-273): > 100 µM (inactive) | GI50 (NCI-H23): > 100 µM (inactive) | GI50 (OVCAR-8): > 100 µM (inactive) | GI50 (SR): > 100 µM (inactive) | GI50 (SF-539): > 100 µM (inactive) | GI50 (MOLT-4): 63 µM (inactive) | GI50 (OVCAR-3): > 100 µM (inactive) | GI50 (SK-MEL-2): > 100 µM (inactive) | GI50 (A549): > 100 µM (inactive) | GI50 (TK-10): > 100 µM (inactive) | GI50 (SNB-75): > 100 µM (inactive)
